Experiment [1] concerns the target Laminin subunit alpha-1 (Homo sapiens) (UniProt P25391). As to the kind of experiment: Binding affinity to biotin-labeled human recombinant laminin-1 at 10 ug/ml in pH 7.4 Tris buffer by fluorescence microarray method.
Experiment [2] has as its target Lactotransferrin (Homo sapiens) (UniProt P02788). As to the kind of experiment: Binding affinity to biotin-labeled lactoferrin (unknown origin) at 10 ug/ml in pH 7.4 Tris buffer by fluorescence microarray method.
Experiment [3] in a line: Binding affinity to biotin-labeled Agaricus bisporus agglutinin in pH 7.4 Tris buffer by fluorescence microarray method.
Experiment [4] concerns Sambucus racemosa subsp. sieboldiana. The experiment can be described thus: Binding affinity to biotin-labeled Sambucus sieboldiana agglutinin in pH 7.4 Tris buffer by fluorescence microarray method.
Experiment [5] concerns the target Laminin subunit alpha-1 (Homo sapiens) (UniProt P25391). The experiment can be described thus: Binding affinity to biotin-labeled human recombinant laminin-1 at 10 ug/ml in pH 5.6 MES buffer by fluorescence microarray method.
The species named for experiment [6] is Homo sapiens. The experiment can be described thus: Binding affinity to biotin-labeled human recombinant laminin-2 at 10 ug/ml in pH 7.4 Tris buffer by fluorescence microarray method.
Experiment [7] has as its target Lactotransferrin (Homo sapiens) (UniProt P02788). As to the kind of experiment: Binding affinity to biotin-labeled lactoferrin (unknown origin) at 10 ug/ml in pH 5.6 MES buffer by fluorescence microarray method.
Experiment [8] is filed under the species Homo sapiens. As to the kind of experiment: Binding affinity to biotin-labeled human recombinant laminin-2 at 10 ug/ml in 5.6 MES buffer by fluorescence microarray method.
In experiment [9] the test system is Datura stramonium. The experiment can be described thus: Binding affinity to biotin-labeled Datura stramonium agglutinin in pH 7.4 Tris buffer by fluorescence microarray method.
For experiment [10], the system named is Canavalia ensiformis. The experiment can be described thus: Binding affinity to biotin-labeled Canavalia ensiformis agglutinin in pH 7.4 Tris buffer by fluorescence microarray method.
Experiment [11] relates to Maackia amurensis. As to the kind of experiment: Binding affinity to biotin-labeled Maackia amurensis agglutinin in pH 7.4 Tris buffer by fluorescence microarray method.
Experiment [12] has as its system Arachis hypogaea. The experiment can be described thus: Binding affinity to biotin-labeled Arachis hypogaea agglutinin in pH 7.4 Tris buffer by fluorescence microarray method.
Experiment [13] has as its system Triticum aestivum. As to the kind of experiment: Binding affinity to biotin-labeled Wheat germ agglutinin in pH 7.4 Tris buffer by fluorescence microarray method.
In experiment [14] the test system is Erythrina crista-galli. The experiment can be described thus: Binding affinity to biotin-labeled Erythrina crista-galli agglutinin in pH 7.4 Tris buffer by fluorescence microarray method.

This note sets out measurements from ChEMBL document CHEMBL4387728, “Synthetic glycopeptides reveal specific binding pattern and conformational change at O-mannosylated position of α-dystroglycan by POMGnT1 catalyzed GlcNAc modification” (Bioorg Med Chem, 2019).

Active and inactive are the calls of the source. The rule behind the calls is not given here. Peptide text beside a SMILES is read from it. * marks the point of attachment. X2 = CC(=O)N[C@H]1[C@H](O[C@H]2[C@@H](O)[C@H](O)[C@@H](CO)O[C@@H]2*)O[C@H](CO)[C@@H](O[C@@H]2O[C@H](CO)[C@H](O)[C@H](O)[C@H]2O)[C@@H]1O; GlcNAc(β1-2)αMan = CC(=O)N[C@H]1[C@H](O[C@H]2[C@@H](O)[C@H](O)[C@@H](CO)O[C@@H]2*)O[C@H](CO)[C@@H](O)[C@@H]1O; Hexanoyl(5-oxo) = CC(=O)CCCC(=O)*

Lactotransferrin (Homo sapiens), sequence (P02788 whole entry): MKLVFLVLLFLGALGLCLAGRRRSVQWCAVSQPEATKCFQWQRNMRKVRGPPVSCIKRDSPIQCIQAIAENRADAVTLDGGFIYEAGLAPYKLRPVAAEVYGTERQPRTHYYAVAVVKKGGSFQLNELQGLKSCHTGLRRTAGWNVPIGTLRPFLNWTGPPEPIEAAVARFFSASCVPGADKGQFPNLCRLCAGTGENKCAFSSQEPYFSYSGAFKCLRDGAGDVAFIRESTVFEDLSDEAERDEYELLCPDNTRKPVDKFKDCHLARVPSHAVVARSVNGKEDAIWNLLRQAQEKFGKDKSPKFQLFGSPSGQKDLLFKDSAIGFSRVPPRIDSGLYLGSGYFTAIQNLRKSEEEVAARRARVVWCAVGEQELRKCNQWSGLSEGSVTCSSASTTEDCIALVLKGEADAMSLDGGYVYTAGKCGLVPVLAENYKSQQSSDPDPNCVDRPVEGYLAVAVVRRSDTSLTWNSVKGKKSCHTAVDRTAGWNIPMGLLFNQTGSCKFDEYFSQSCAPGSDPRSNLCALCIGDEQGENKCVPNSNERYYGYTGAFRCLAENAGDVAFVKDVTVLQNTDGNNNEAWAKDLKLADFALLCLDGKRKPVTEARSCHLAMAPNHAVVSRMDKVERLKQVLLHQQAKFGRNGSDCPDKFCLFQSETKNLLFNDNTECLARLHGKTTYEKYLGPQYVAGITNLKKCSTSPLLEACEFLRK
Laminin subunit alpha-1 (Homo sapiens), sequence (P25391 whole entry): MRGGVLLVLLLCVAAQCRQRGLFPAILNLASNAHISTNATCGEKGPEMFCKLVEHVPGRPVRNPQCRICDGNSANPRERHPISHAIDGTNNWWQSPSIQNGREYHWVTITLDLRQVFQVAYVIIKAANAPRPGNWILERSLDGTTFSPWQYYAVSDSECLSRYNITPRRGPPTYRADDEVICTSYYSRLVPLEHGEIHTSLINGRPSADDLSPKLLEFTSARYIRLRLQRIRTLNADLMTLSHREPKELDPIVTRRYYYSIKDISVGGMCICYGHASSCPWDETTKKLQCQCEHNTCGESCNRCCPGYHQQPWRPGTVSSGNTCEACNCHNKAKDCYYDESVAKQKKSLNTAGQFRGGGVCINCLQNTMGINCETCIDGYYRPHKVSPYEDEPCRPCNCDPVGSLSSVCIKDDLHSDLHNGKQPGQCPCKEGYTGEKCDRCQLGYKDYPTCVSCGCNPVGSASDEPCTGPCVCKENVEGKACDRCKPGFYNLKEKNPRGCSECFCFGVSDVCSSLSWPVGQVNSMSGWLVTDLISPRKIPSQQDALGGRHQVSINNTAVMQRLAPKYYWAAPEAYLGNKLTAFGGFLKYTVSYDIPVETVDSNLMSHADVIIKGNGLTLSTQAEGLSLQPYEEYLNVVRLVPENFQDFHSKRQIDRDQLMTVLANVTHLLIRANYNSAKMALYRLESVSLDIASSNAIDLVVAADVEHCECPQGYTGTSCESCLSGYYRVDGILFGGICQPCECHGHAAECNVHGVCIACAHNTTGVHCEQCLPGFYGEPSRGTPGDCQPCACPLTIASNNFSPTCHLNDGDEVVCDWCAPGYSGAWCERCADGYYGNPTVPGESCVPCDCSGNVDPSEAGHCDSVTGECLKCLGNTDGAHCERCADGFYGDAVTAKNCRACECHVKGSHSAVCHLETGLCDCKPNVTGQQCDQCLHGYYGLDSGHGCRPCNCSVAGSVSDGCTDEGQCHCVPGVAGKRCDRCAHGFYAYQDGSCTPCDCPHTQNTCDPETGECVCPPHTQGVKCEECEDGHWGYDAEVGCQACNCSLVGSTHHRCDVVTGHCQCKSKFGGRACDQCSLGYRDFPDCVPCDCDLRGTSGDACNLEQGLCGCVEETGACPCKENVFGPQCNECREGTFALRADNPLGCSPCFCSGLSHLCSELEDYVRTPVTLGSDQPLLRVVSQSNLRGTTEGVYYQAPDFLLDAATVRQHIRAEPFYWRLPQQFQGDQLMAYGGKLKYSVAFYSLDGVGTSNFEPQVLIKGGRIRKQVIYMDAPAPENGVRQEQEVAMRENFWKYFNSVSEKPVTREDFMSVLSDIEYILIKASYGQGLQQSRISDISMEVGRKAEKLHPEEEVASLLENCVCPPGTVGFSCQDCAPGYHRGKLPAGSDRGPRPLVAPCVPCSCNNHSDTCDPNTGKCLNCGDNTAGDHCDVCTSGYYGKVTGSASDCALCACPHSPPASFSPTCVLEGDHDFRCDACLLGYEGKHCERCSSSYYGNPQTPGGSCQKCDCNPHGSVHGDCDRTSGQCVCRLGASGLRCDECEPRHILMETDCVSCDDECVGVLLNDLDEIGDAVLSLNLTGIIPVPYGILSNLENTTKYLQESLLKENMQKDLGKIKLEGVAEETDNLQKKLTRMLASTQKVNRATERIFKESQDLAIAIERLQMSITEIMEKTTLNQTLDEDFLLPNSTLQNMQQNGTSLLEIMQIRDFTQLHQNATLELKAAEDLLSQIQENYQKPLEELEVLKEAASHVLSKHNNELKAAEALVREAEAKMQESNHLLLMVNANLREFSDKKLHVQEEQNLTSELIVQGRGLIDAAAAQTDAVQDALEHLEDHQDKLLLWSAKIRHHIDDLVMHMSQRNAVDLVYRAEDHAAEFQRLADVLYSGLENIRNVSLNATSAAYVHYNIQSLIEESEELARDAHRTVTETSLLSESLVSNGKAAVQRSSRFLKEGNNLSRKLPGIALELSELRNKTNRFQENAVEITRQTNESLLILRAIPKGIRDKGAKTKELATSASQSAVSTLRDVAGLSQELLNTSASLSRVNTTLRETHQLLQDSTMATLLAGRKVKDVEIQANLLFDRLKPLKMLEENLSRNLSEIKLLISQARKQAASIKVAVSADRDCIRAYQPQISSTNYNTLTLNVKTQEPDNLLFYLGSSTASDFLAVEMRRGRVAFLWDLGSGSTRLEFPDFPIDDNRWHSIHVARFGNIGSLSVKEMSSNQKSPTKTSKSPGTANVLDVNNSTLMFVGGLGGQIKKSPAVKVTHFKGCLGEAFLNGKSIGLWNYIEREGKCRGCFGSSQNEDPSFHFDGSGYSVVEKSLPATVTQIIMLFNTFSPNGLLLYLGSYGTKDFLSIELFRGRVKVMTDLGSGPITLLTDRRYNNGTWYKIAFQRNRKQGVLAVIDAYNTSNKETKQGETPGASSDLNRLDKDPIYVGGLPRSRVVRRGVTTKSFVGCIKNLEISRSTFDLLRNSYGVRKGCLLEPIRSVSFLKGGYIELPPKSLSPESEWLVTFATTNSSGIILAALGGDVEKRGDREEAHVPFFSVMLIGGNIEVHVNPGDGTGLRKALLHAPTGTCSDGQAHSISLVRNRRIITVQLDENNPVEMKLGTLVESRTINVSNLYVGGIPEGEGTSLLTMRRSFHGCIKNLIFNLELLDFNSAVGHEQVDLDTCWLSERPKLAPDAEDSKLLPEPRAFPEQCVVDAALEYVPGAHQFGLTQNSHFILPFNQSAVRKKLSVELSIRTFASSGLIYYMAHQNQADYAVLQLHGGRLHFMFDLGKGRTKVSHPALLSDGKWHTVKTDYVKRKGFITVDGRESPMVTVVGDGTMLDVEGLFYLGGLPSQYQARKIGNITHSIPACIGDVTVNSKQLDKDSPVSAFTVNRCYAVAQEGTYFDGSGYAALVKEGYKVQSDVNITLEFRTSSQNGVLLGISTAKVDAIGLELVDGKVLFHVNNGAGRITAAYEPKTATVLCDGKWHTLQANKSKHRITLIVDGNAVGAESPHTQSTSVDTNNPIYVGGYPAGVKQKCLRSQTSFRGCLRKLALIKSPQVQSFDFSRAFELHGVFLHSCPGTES

On to `CC[C@H](C)[C@H](NC(=O)[C@H](C)NC(=O)CNC(=O)[C@H](CCCNC(=N)N)NC(=O)[C@@H](NC(=O)CCCC(C)=O)[C@@H](C)O)C(=O)N[C@H](C(=O)N[C@@H](CCC(N)=O)C(=O)N[C@H](C(=O)N1CCC[C@H]1C(=O)N[C@H](C(=O)N[C@@H](CC(C)C)C(=O)NCC(=O)N1CCC[C@H]1C(=O)N[C@H](C(=O)N[C@@H](CCC(N)=O)C(=O)N1CCC[C@H]1C(=O)N[C@H](C(=O)N[C@@H](CCCNC(=N)N)C(=O)N[C@H](C(N)=O)C(C)C)[C@@H](C)O[C@H]1O[C@H](CO)[C@@H](O)[C@H](O)[C@@H]1O[C@@H]1O[C@H](CO)[C@@H](O[C@@H]2O[C@H](CO)[C@H](O)[C@H](O[C@]3(C(=O)O)C[C@H](O)[C@@H](NC(C)=O)[C@H]([C@H](O)[C@H](O)CO)O3)[C@H]2O)[C@H](O)[C@H]1NC(C)=O)[C@@H](C)CC)[C@@H](C)O[C@H]1O[C@H](CO)[C@@H](O)[C@H](O)[C@@H]1O[C@@H]1O[C@H](CO)[C@@H](O[C@@H]2O[C@H](CO)[C@H](O)[C@H](O[C@]3(C(=O)O)C[C@H](O)[C@@H](NC(C)=O)[C@H]([C@H](O)[C@H](O)CO)O3)[C@H]2O)[C@H](O)[C@H]1NC(C)=O)[C@@H](C)O[C@H]1O[C@H](CO)[C@@H](O)[C@H](O)[C@@H]1O[C@@H]1O[C@H](CO)[C@@H](O[C@@H]2O[C@H](CO)[C@H](O)[C@H](O[C@]3(C(=O)O)C[C@H](O)[C@@H](NC(C)=O)[C@H]([C@H](O)[C@H](O)CO)O3)[C@H]2O)[C@H](O)[C@H]1NC(C)=O)[C@@H](C)CC`, for which the outcome in experiment [1], in experiment [3], in [4], in [5], in [7] and in [8] was Active. For the same molecule, the result in experiment [10], in [12], in experiment [13] and in [14] was Active. For the same molecule, the result in experiment [2], in experiment [6], in experiment [9] and in [11] was inactive.

For the molecule `CC[C@H](C)[C@H](NC(=O)[C@H](C)NC(=O)CNC(=O)[C@H](CCCNC(=N)N)NC(=O)[C@@H](NC(=O)CCCC(C)=O)[C@@H](C)O)C(=O)N[C@H](C(=O)N[C@@H](CCC(N)=O)C(=O)N[C@H](C(=O)N1CCC[C@H]1C(=O)N[C@H](C(=O)N[C@@H](CC(C)C)C(=O)NCC(=O)N1CCC[C@H]1C(=O)N[C@H](C(=O)N[C@@H](CCC(N)=O)C(=O)N1CCC[C@H]1C(=O)N[C@H](C(=O)N[C@@H](CCCNC(=N)N)C(=O)N[C@H](C(N)=O)C(C)C)[C@@H](C)O[C@H]1O[C@H](CO)[C@@H](O)[C@H](O)[C@@H]1O[C@@H]1O[C@H](CO)[C@@H](O)[C@H](O)[C@H]1NC(C)=O)[C@@H](C)CC)[C@@H](C)O[C@H]1O[C@H](CO)[C@@H](O)[C@H](O)[C@@H]1O[C@@H]1O[C@H](CO)[C@@H](O)[C@H](O)[C@H]1NC(C)=O)[C@@H](C)O[C@H]1O[C@H](CO)[C@@H](O)[C@H](O)[C@@H]1O[C@@H]1O[C@H](CO)[C@@H](O)[C@H](O)[C@H]1NC(C)=O)[C@@H](C)CC` ({Hexanoyl(5-oxo)}-TRGAIIQT(GlcNAc(β1-2)αMan)PT(GlcNAc(β1-2)αMan)LGPIQPT(GlcNAc(β1-2)αMan)RV-NH2), the result in experiment [1], in experiment [3], in experiment [4], in experiment [5], in experiment [7] and in experiment [8] was Active. The outcome in experiment [10], in experiment [12], in [13] and in [14] was Active. In addition, the outcome in experiment [2], in experiment [6], in experiment [9] and in [11] was inactive.

As to `CC[C@H](C)[C@H](NC(=O)[C@H](C)NC(=O)CNC(=O)[C@H](CCCNC(=N)N)NC(=O)[C@@H](NC(=O)CCCC(C)=O)[C@@H](C)O)C(=O)N[C@H](C(=O)N[C@@H](CCC(N)=O)C(=O)N[C@H](C(=O)N1CCC[C@H]1C(=O)N[C@H](C(=O)N[C@@H](CC(C)C)C(=O)NCC(=O)N1CCC[C@H]1C(=O)N[C@H](C(=O)N[C@@H](CCC(N)=O)C(=O)N1CCC[C@H]1C(=O)N[C@H](C(=O)N[C@@H](CCCNC(=N)N)C(=O)N[C@H](C(N)=O)C(C)C)[C@@H](C)O[C@H]1O[C@H](CO)[C@@H](O)[C@H](O)[C@@H]1O[C@@H]1O[C@H](CO)[C@@H](O)[C@H](O)[C@H]1NC(C)=O)[C@@H](C)CC)[C@@H](C)O)[C@@H](C)O)[C@@H](C)CC` ({Hexanoyl(5-oxo)}-TRGAIIQTPTLGPIQPT(GlcNAc(β1-2)αMan)RV-NH2), the outcome in [1], in experiment [3], in experiment [4], in experiment [5], in [7] and in experiment [8] was Active. The result in experiment [10], in experiment [12], in experiment [13] and in experiment [14] was Active. Also, the result in experiment [2], in experiment [6], in [9] and in experiment [11] was inactive.

With `CC[C@H](C)[C@H](NC(=O)[C@H](C)NC(=O)CNC(=O)[C@H](CCCNC(=N)N)NC(=O)[C@@H](NC(=O)CCCC(C)=O)[C@@H](C)O)C(=O)N[C@H](C(=O)N[C@@H](CCC(N)=O)C(=O)N[C@H](C(=O)N1CCC[C@H]1C(=O)N[C@H](C(=O)N[C@@H](CC(C)C)C(=O)NCC(=O)N1CCC[C@H]1C(=O)N[C@H](C(=O)N[C@@H](CCC(N)=O)C(=O)N1CCC[C@H]1C(=O)N[C@H](C(=O)N[C@@H](CCCNC(=N)N)C(=O)N[C@H](C(N)=O)C(C)C)[C@@H](C)O[C@H]1O[C@H](CO)[C@@H](O)[C@H](O)[C@@H]1O[C@@H]1O[C@H](CO)[C@@H](O[C@@H]2O[C@H](CO)[C@H](O)[C@H](O)[C@H]2O)[C@H](O)[C@H]1NC(C)=O)[C@@H](C)CC)[C@@H](C)O)[C@@H](C)O[C@H]1O[C@H](CO)[C@@H](O)[C@H](O)[C@@H]1O[C@@H]1O[C@H](CO)[C@@H](O[C@@H]2O[C@H](CO)[C@H](O)[C@H](O)[C@H]2O)[C@H](O)[C@H]1NC(C)=O)[C@@H](C)CC` ({Hexanoyl(5-oxo)}-TRGAIIQT(X2)PTLGPIQPT(X2)RV-NH2), the outcome in experiment [1], in [3], in experiment [4], in experiment [5], in experiment [7] and in experiment [8] was Active. Moreover, the result in experiment [10], in experiment [12], in experiment [13] and in experiment [14] was Active. The outcome in experiment [2], in [6], in [9] and in [11] was inactive.

Regarding `CC[C@H](C)[C@H](NC(=O)[C@H](C)NC(=O)CNC(=O)[C@H](CCCNC(=N)N)NC(=O)[C@@H](NC(=O)CCCC(C)=O)[C@@H](C)O)C(=O)N[C@H](C(=O)N[C@@H](CCC(N)=O)C(=O)N[C@H](C(=O)N1CCC[C@H]1C(=O)N[C@H](C(=O)N[C@@H](CC(C)C)C(=O)NCC(=O)N1CCC[C@H]1C(=O)N[C@H](C(=O)N[C@@H](CCC(N)=O)C(=O)N1CCC[C@H]1C(=O)N[C@H](C(=O)N[C@@H](CCCNC(=N)N)C(=O)N[C@H](C(N)=O)C(C)C)[C@@H](C)O[C@H]1O[C@H](CO)[C@@H](O)[C@H](O)[C@@H]1O[C@@H]1O[C@H](CO)[C@@H](O)[C@H](O)[C@H]1NC(C)=O)[C@@H](C)CC)[C@@H](C)O)[C@@H](C)O[C@H]1O[C@H](CO)[C@@H](O)[C@H](O)[C@@H]1O[C@@H]1O[C@H](CO)[C@@H](O)[C@H](O)[C@H]1NC(C)=O)[C@@H](C)CC` ({Hexanoyl(5-oxo)}-TRGAIIQT(GlcNAc(β1-2)αMan)PTLGPIQPT(GlcNAc(β1-2)αMan)RV-NH2), the outcome in [1], in experiment [3], in [4], in [5], in [7] and in experiment [8] was Active. Moreover, the outcome in [10], in experiment [12], in experiment [13] and in experiment [14] was Active. In addition, the result in experiment [2], in experiment [6], in experiment [9] and in experiment [11] was inactive.
